Assay results reported in PubChem BioAssay (NCI).
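Following 48 hours of exposure in 96-well plates, responses at five concentrations were used to interpolate endpoints linearly. TGI: concentration producing complete growth inhibition.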

Key:
Test in all cases: inhibition of tumour cell growth, NCI panel, 48 h
786-0 renal = tested on: 786-0 renal
A498 renal = tested on: A498 renal
A549 NSCLC = tested on: A549 NSCLC
ACHN renal = tested on: ACHN renal
CAKI-1 renal = tested on: CAKI-1 renal
CCRF-CEM leukemia = tested on: CCRF-CEM leukemia
COLO 205 colon = tested on: COLO 205 colon
DLD-1 colon = tested on: DLD-1 colon
DMS 114 small cell lung = tested on: DMS 114 small cell lung
DMS 273 small cell lung = tested on: DMS 273 small cell lung
EKVX NSCLC = tested on: EKVX NSCLC
HCC-2998 colon = tested on: HCC-2998 colon
HCT-116 colon = tested on: HCT-116 colon
HCT-15 colon = tested on: HCT-15 colon
HL-60(TB) leukemia = tested on: HL-60(TB) leukemia
HOP-18 NSCLC = tested on: HOP-18 NSCLC
HOP-62 NSCLC = tested on: HOP-62 NSCLC
HOP-92 NSCLC = tested on: HOP-92 NSCLC
HT29 colon = tested on: HT29 colon
IGROV1 ovarian = tested on: IGROV1 ovarian
K-562 leukemia = tested on: K-562 leukemia
KM12 colon = tested on: KM12 colon
KM20L2 colon = tested on: KM20L2 colon
LOX IMVI melanoma = tested on: LOX IMVI melanoma
LXFL 529 NSCLC = tested on: LXFL 529 NSCLC
M14 melanoma = tested on: M14 melanoma
M19-MEL melanoma = tested on: M19-MEL melanoma
MALME-3M melanoma = tested on: MALME-3M melanoma
MOLT-4 leukemia = tested on: MOLT-4 leukemia
NCI-H226 lung = tested on: NCI-H226 lung
NCI-H23 lung = tested on: NCI-H23 lung
NCI-H460 lung = tested on: NCI-H460 lung
NCI-H522 lung = tested on: NCI-H522 lung
OVCAR-3 ovarian = tested on: OVCAR-3 ovarian
OVCAR-4 ovarian = tested on: OVCAR-4 ovarian
OVCAR-5 ovarian = tested on: OVCAR-5 ovarian
OVCAR-8 ovarian = tested on: OVCAR-8 ovarian
RPMI-8226 leukemia = tested on: RPMI-8226 leukemia
RXF 393 renal = tested on: RXF 393 renal
SF-268 CNS = tested on: SF-268 CNS
SF-295 CNS = tested on: SF-295 CNS
SF-539 CNS = tested on: SF-539 CNS
SK-MEL-2 melanoma = tested on: SK-MEL-2 melanoma
SK-MEL-28 melanoma = tested on: SK-MEL-28 melanoma
SK-MEL-5 melanoma = tested on: SK-MEL-5 melanoma
SK-OV-3 ovarian = tested on: SK-OV-3 ovarian
SN12C renal = tested on: SN12C renal
SNB-19 CNS = tested on: SNB-19 CNS
SNB-75 CNS = tested on: SNB-75 CNS
SNB-78 CNS = tested on: SNB-78 CNS
SR leukemia = tested on: SR leukemia
SW-620 colon = tested on: SW-620 colon
TK-10 renal = tested on: TK-10 renal
UACC-257 melanoma = tested on: UACC-257 melanoma
UACC-62 melanoma = tested on: UACC-62 melanoma
UO-31 renal = tested on: UO-31 renal
XF 498 CNS = tested on: XF 498 CNS
U251 CNS = tested on: U251 CNS

`CN(C)CC1CCC(=C2CCCC2)C1=O` (stereo not drawn) was tested, and the TGI (786-0 renal) was 19.7 µM, the TGI (A498 renal) was 35.4 µM and the TGI (A549 NSCLC) was 39.8 µM. It also gave a TGI (ACHN renal) of 21.4 µM, a TGI (CAKI-1 renal) of over 100 µM and a TGI (CCRF-CEM leukemia) of 9.54 µM. For the same molecule, the TGI (COLO 205 colon) was 33.4 µM, the TGI (DLD-1 colon) was 7.02 µM and the TGI (DMS 114 small cell lung) was 25 µM. The TGI (DMS 273 small cell lung) was 34.8 µM, the TGI (EKVX NSCLC) was 34.7 µM and the TGI (HCC-2998 colon) was 32.5 µM. For the same molecule, the TGI (HCT-116 colon) was 29.3 µM, the TGI (HCT-15 colon) was 15.9 µM and the TGI (HL-60(TB) leukemia) was 15.4 µM. It also gave a TGI (HOP-18 NSCLC) of 31.2 µM, a TGI (HOP-62 NSCLC) of 19.1 µM and a TGI (HOP-92 NSCLC) of 20.1 µM. It also gave a TGI (HT29 colon) of 32.6 µM, a TGI (IGROV1 ovarian) of 34.4 µM and a TGI (K-562 leukemia) of 8.76 µM. For the same molecule, the TGI (KM12 colon) was 25.6 µM, the TGI (KM20L2 colon) was 36.3 µM and the TGI (LOX IMVI melanoma) was 31.8 µM. The TGI (LXFL 529 NSCLC) was 12.6 µM, the TGI (M14 melanoma) was 23.3 µM and the TGI (M19-MEL melanoma) was 32.9 µM. It also gave a TGI (MALME-3M melanoma) of 11 µM, a TGI (MOLT-4 leukemia) of over 20.7 µM and a TGI (NCI-H226 lung) of 32.2 µM. The TGI (NCI-H23 lung) was 36.3 µM, the TGI (NCI-H460 lung) was 45.8 µM and the TGI (NCI-H522 lung) was 3.39 µM. For the same molecule, the TGI (OVCAR-3 ovarian) was 26.3 µM, the TGI (OVCAR-4 ovarian) was 31 µM and the TGI (OVCAR-5 ovarian) was 30.9 µM. For the same molecule, the TGI (OVCAR-8 ovarian) was 39.1 µM, the TGI (RPMI-8226 leukemia) was 4.81 µM and the TGI (RXF 393 renal) was 27.9 µM. For the same molecule, the TGI (SF-268 CNS) was 26.4 µM, the TGI (SF-295 CNS) was over 100 µM and the TGI (SF-539 CNS) was 40 µM. The TGI (SK-MEL-2 melanoma) was 33.5 µM, the TGI (SK-MEL-28 melanoma) was 27.4 µM and the TGI (SK-MEL-5 melanoma) was 32 µM. It also gave a TGI (SK-OV-3 ovarian) of over 100 µM, a TGI (SN12C renal) of 24.9 µM and a TGI (SNB-19 CNS) of over 100 µM. It also gave a TGI (SNB-75 CNS) of 30.7 µM, a TGI (SNB-78 CNS) of 34.4 µM and a TGI (SR leukemia) of 21.1 µM. It also gave a TGI (SW-620 colon) of over 20.9 µM, a TGI (TK-10 renal) of 25.2 µM and a TGI (UACC-257 melanoma) of 31.8 µM. The TGI (UACC-62 melanoma) was 31.4 µM, the TGI (UO-31 renal) was 32.3 µM and the TGI (XF 498 CNS) was 12.4 µM.

In the case of `COc1ccc(N2C(=O)C3CC(c4ccc(C)cc4)c4c([nH]c5ccccc45)C3C2=O)cc1` (stereo not drawn), the TGI (786-0 renal) is reported as 26.6 µM, the TGI (A498 renal) is reported as 55.6 µM and the TGI (A549 NSCLC) is reported as 43.3 µM. The TGI (ACHN renal) was over 63.8 µM, the TGI (CAKI-1 renal) was over 100 µM and the TGI (CCRF-CEM leukemia) was over 45.6 µM. The TGI (COLO 205 colon) was over 48.5 µM, the TGI (DLD-1 colon) was over 100 µM and the TGI (DMS 114 small cell lung) was over 86 µM. It also gave a TGI (DMS 273 small cell lung) of over 100 µM, a TGI (EKVX NSCLC) of over 100 µM and a TGI (HCC-2998 colon) of over 100 µM. It also gave a TGI (HCT-116 colon) of 17.2 µM, a TGI (HCT-15 colon) of over 89.7 µM and a TGI (HL-60(TB) leukemia) of 30.9 µM. The TGI (HOP-18 NSCLC) was 10.3 µM, the TGI (HOP-62 NSCLC) was 53.7 µM and the TGI (HOP-92 NSCLC) was 73.7 µM. The TGI (HT29 colon) was over 100 µM, the TGI (IGROV1 ovarian) was over 79.6 µM and the TGI (K-562 leukemia) was over 100 µM. It also gave a TGI (KM12 colon) of over 100 µM, a TGI (KM20L2 colon) of over 100 µM and a TGI (LOX IMVI melanoma) of 26.4 µM. For the same molecule, the TGI (LXFL 529 NSCLC) was over 56.1 µM, the TGI (M14 melanoma) was over 89.2 µM and the TGI (M19-MEL melanoma) was over 100 µM. For the same molecule, the TGI (MALME-3M melanoma) was 49.6 µM, the TGI (MOLT-4 leukemia) was over 58.7 µM and the TGI (NCI-H226 lung) was 28.1 µM. For the same molecule, the TGI (NCI-H23 lung) was over 93.9 µM, the TGI (NCI-H460 lung) was 31.8 µM and the TGI (NCI-H522 lung) was 51 µM. It also gave a TGI (OVCAR-3 ovarian) of 12.3 µM, a TGI (OVCAR-4 ovarian) of 27.5 µM and a TGI (OVCAR-5 ovarian) of over 100 µM. For the same molecule, the TGI (OVCAR-8 ovarian) was 38.9 µM, the TGI (SF-268 CNS) was over 76.3 µM and the TGI (SF-295 CNS) was over 86.8 µM. It also gave a TGI (SF-539 CNS) of over 62.5 µM, a TGI (SK-MEL-2 melanoma) of over 100 µM and a TGI (SK-MEL-28 melanoma) of 99.7 µM. For the same molecule, the TGI (SK-MEL-5 melanoma) was over 100 µM, the TGI (SK-OV-3 ovarian) was 93 µM and the TGI (SN12C renal) was 31.8 µM. It also gave a TGI (SNB-19 CNS) of over 56.3 µM, a TGI (SNB-75 CNS) of 51 µM and a TGI (SNB-78 CNS) of 98.7 µM. It also gave a TGI (SR leukemia) of 4.55 µM, a TGI (SW-620 colon) of over 55.3 µM and a TGI (TK-10 renal) of over 95.3 µM. For the same molecule, the TGI (U251 CNS) was 16.8 µM, the TGI (UACC-257 melanoma) was over 100 µM and the TGI (UACC-62 melanoma) was over 100 µM. For the same molecule, the TGI (UO-31 renal) was over 70.7 µM and the TGI (XF 498 CNS) was over 74 µM.
